According to US9399192B2, “Carbon dioxide absorber and carbon dioxide separation/recovery method using the absorber” (ASAHI KASEI KABUSHIKI KAISHA, priority 2011, dated 2016):
Where two headings read alike, the source gives them in different places.

Columns and labels:
[1] = Evaluation of reactivity of aqueous amine solutions with carbon dioxide; type: physicochemical; settings: for Absorbed amount at 30° C. (moles CO2/moles N) / Absorbed amount at 90° C. (moles CO2/moles N): aqueous amine 1.81 mol/L (monoamine) or 0.91 mol/L (diamine), CO2 300 mL/min 15 minutes; for CO2 desorption performance (moles CO2/moles N): difference between absorbed amount at 30° C. and at 90° C.
Experimental: Amine compounds were mixed with water to prepare aqueous amine solutions. At this time, the concentration of monoamine compounds having one amino group was adjusted to 1.81 mol/L, while the concentration of diamine compounds having two amino groups was adjusted to 0.91 mol/L. Carbon dioxide gas was blown into 25 mL aliquots of each aqueous amine solution for 15 minutes at 300 mL/min to allow the amine compound to react with the carbon dioxide. The reactions were carried out at temperatures of 30° C. and 90° C., and the reacted amount was calculated from element ratios of C and N before and after the reaction as measured with the Model TOC-VCP and Model TNM-1 Total Organic Carbon Analyzers (Shimadzu Corp.).
The absorbed amounts are represented by the number of moles of carbon dioxide reacting with respect to 1 mole of amino group, or in other words, moles CO2/moles N.
(§1) Table 7 indicates a comparison of performance when used as an amine compound for a carbon dioxide absorber. Those parameters evaluated as indicators of performance consisted of absorbed amount at 30° C., absorbed amount at 90° C. and heat of reaction. Furthermore, the difference between the absorbed amount at 30° C. and the absorbed amount at 90° C. was taken to represent carbon dioxide desorption performance. Values for heat of reaction are shown in Table 7 after converting to heat of reaction (kJ/mol) per 1 mole of reacted carbon dioxide using a calibration curve obtained when the reacted amount of the amino groups of each amine compound and carbon dioxide reached 0.10 mol CO2/mol N.

[2] = Evaluation of heat of reaction of aqueous amine solutions (C-80 reaction calorimeter, FIG. 9C); type: physicochemical; settings: 30° C., per 1 mole of reacted CO2 at reacted amount 0.10 mol CO2/mol N
Experimental: * Evaluation of Heat of Reaction Heat of reaction was measured using the apparatus shown in FIG. 9C with the Model C-80 Reaction calorimeter (Setaram Inc.) 936. A gas circulation normal pressure type cell (stainless steel 31/1415) was used for the cell, and the gas inlet port and outlet port were connected as shown in FIG. 9C. 4 g aliquots of each aqueous amine compound solution were placed in the cell after adjusting to the same concentrations as those used in the aforementioned evaluation of reactivity ([…] in the case of monoamine compounds and […] in the case of diamine compounds) and the cell was then placed in the C-80 Reaction calorimeter. The cell temperature was adjusted to 30° C. and allowed to stabilize. 50 mL of carbon dioxide were injected into a gas syringe 930 from carbon dioxide supplied from a carbon dioxide cylinder 929 by closing a valve 932 followed by opening the valve 932. The reacted amount was then measured based on the change in internal pressure measured with a pressure gauge 933 while measuring the amount of heat generated with the C-80 Reaction calorimeter. The amount of heat generated and reacted amount were calculated in advance using a calibration curve of heat of compression and internal pressure determined in the absence of a sample.
as §1

[3] = type: physicochemical
Text: Thus, Compound A is extremely useful since it is able to reduce volatilization loss when contacting a gas. In addition, the weak basicity per amino group is attributable to the diamine structure. […]. Thus, Compound A is extremely useful since it allows a wide range of materials to be selected for use in the reactor.

[4] = pH 0.4
[5] = physchem; settings: aqueous solution
[6] = pKb of amine compounds / pKa of weakly acidic compounds calculated from pH of aqueous solution; settings: amine compound, aqueous solution at 30° C., calculated from pH of 0.4 M aqueous solution

Row | Absorbed amount at 30° C. (moles CO2/moles N) [1] [moles CO2/moles N] | Absorbed amount at 90° C. (moles CO2/moles N) [1] [moles CO2/moles N] | CO2 desorption performance (moles CO2/moles N) [1] [moles CO2/moles N] | Heat of reaction [2] [kcal/mol] | pKb [6] | SMILES | other results
1 | 0.516 | 0.214 | 0.302 | 16.1 | – | OCCNCC(O)CNCCO [BHEP, 1,3-bis(2-hydroxyethylamino)propan-2-ol] | vapor pressure [3]: 0.04 mPa; pKb [4]: 6.3
2 | 0.498 | 0.213 | 0.285 | 16.3 | – | CC(O)CNCC(O)CNCC(C)O (centres unmarked) [BHPP, 1,3-bis(2-hydroxypropylamino)propan-2-ol] | –
3 | – | – | – | – | – | OB(O)O [Boric acid] | pKa [5]: 9.2
4 | 0.601 | 0.409 | 0.192 | 20.9 | – | NCC(O)CN [DAP, 1,3-diaminopropan-2-ol] | –
5 | – | – | – | – | – | OCCNCCO [DEA, Diethanolamine] | pKb [4]: 5.4
6 | 0.631 | 0.279 | 0.352 | 20.8 | 4.4 | CCNCCO [EAE, 2-ethylaminoethanol] | –
7 | – | – | – | – | 5.6 | NC(CO)CO [Example 2A13PD, 2-amino-1,3-propanediol] | –
8 | 0.506 | 0.213 | 0.293 | 16.1 | – | CC(O)CNCC(O)CNCCO (centres unmarked) [HEHPP, 1-(2-hydroxyethylamino)-3-(2-hydroxypropylamino)propan-2-ol] | –
9 | – | – | – | – | 4.1 | CC(C)NCCO [IPAE, 2-isopropylaminoethanol] | –
10 | 0.614 | 0.400 | 0.214 | 21.6 | – | NCCO [MEA, Monoethanolamine] | pKb [4]: 4.7
11 | – | – | – | – | 4.8 | C1CNCCN1 [Pz, piperazine] | –
12 | – | – | – | – | – | CCOB(OCC)OCC [TEB, Triethylborate] | pKa [5]: 8.1
13 | – | – | – | – | – | COB(OC)OC [TMB, Trimethylborate] | pKa [5]: 8.7
